One molecule from patent US20240366589A1, “NHE3-BINDING COMPOUNDS AND METHODS FOR INHIBITING PHOSPHATE TRANSPORT” (Ardelyx, Inc., priority 2013, published 2024) can be followed below.

Structures are written as SMILES.

In the assay the test system is absorption of sodium from the intestinal lumen. The assay can be described thus: Fecal form score (FFS) 16 h after oral dose in rats. As to conditions: in words. It is filed as in vivo, rat. An outline of the steps: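 Fecal form was scored at 16 h post-dose on a 1–5 wetness scale (normal pellet to liquid stream), with two independent observations averaged across six rats per group. Animals were 8-week-old Sprague-Dawley rats given test compound or water orally in the late afternoon and kept in metabolic cages.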

Turning to `CN1Cc2c(Cl)cc(Cl)cc2[C@@H](c2cccc(S(=O)(=O)NCCOCCOCCNC(=O)NCCCCNC(=O)NCCOCCOCCNS(=O)(=O)c3cccc([C@H]4CN(C)Cc5c(Cl)cc(Cl)cc54)c3)c2)C1` [Cpd 004], the “effect on fecal form” value was “no significant effect”.
